Legend:
U373 = assay: MTT colorimetric assay, overall cell growth; format: cell-based; conditions: Homo sapiens, U373 MG; U373 cells, 72 hours of incubation; read-out: IC50 (µM) In Vitro Growth Inhibitory Concentrations (MTT Colorimetric Assay) U373
Method: (§2) The compounds and particularly dihydrobenzopyran, thiochroman, tetrahydroquinoleine and tetrahydronaphthalene derivatives of the invention were evaluated for their anti-proliferative effect (by means of the colorimetric MTT assay), in the following human glioblastoma cell-lines U373, T98G and Hs683 and in the mouse glioma cell line GL261. Normal brain cells (primocultures from newborn mice) were also used in order to determine the bioselectivity (B^N/C) of the compounds of interest, i.e. the ratio between the concentrations that inhibits 50% of the growth of brain cancer (C) cells (glioma cells) and the concentration that inhibits 50% of the growth of normal (N) brain cells (primocultures of astrocytes). The ideal situation to be reached is a bioselectivity of B^N/C > 10.
(§3) MTT tests were performed in order to rapidly, i.e. within 5 days, measure the effect of compounds of this invention on the overall cell growth. The test measured the number of metabolically active living cells that were able to transform the yellow product 3-(4,5-dimethylthiazol-2-yl)-2,5-diphenyl tetrazolium bromide (herein referred as MTT) into the blue product formazan dye by mitochondrial reduction. The amount of formazan obtained at the end of the experiment, measured by means of a spectrophotometer, is directly proportional to the number of living cells. Optical density determination thus enabled a quantitative measurement of the effect of the investigated compounds as compared to the control condition (untreated cells) and/or to other reference compounds.
(§4) Three human cancer cell lines were used in the following MTT tests.
(§5) To perform the assay, cells were allowed to grow in 96-well micro-wells with a flat bottom with an amount of 100 µl of cell suspension per well with 1,000 to 8,000 cells/well depending on the cell type used. Each cell line was seeded in its appropriate culture medium.
(§6) The detailed experimental procedure was the following: after a 24-hour period of incubation at 37°C, the culture medium was replaced by 100 µl of fresh medium in which the tested compound was previously dissolved, at the following molar concentrations: 10^-8 M, 5.10^-8 M, 10^-7 M, 5.10^-7 M, 10^-6 M, 5.10^-6 M, 10^-5 M, 5.10^-5 M and 10^-4 M. Each experiment was performed in sextuplicate (6 times).
(§7) After 72 hours of incubation at 37°C with (experimental conditions) or without (control condition) the compound to be tested, the medium was replaced by 100 µl MTT dissolved in RPMI (1640 without phenol red) at a concentration of 0.5 mg/ml. The micro-wells were subsequently incubated during 3 hours and a half at 37°C and centrifuged at 1300 rpm during 10 minutes. MTT was removed and formazan crystals formed were dissolved in 100 µl DMSO. The micro-wells were shaken for 5 minutes and read on a spectrophotometer at wavelengths of 570 nm (maximal formazan absorbance).
(§8) For each experimental condition, the mean optical density was calculated, allowing the determination of the percentage of remaining living cells in comparison to the control.

[1] = system: human U373 glioma cell line; assay: Quantitative videomicroscopy (computer-assisted phase-contrast microscopy); format: cell-based; conditions: U373 cells treated at the IC50 concentration from MTT, filmed for 72h; cytostatic versus cytotoxic effects
Source text: In addition, the inventors could establish that the compounds of the invention act through a non-apoptosis-related mechanism thanks to a unique experimental approach used by the inventors, i.e. computer-assisted phase-contrast microscopy (quantitative videomicroscopy), making them good candidates as anti-cancer drugs for treating apoptosis-resistant tumor or cancer cells and for overcoming problems linked to the known anti-cancer drugs.
As the MTT test is based on the mitochondria functions, we also investigated the effects of the compounds according to the invention on cell proliferation, migration and morphology by means of a cellular imaging approach (Debeir et al., Cytometry 60:29-40, 2004; Debeir et al., IEEE Trans Med Imaging 24:697-711, 2005) in the human U373 glioma cell line, which is apoptosis-resistant but autophagy-sensitive (Lefranc F et al., Neurosurgery 2008).
Cellular imaging relied on the use of computer-assisted phase-contrast microscopy making possible to film the behaviour of living cells in culture dishes for several days.
Cells were seeded in a 25-cm^2 flask at a low density, treated or not with the compounds of the invention (at their IC50 concentration determined previously by MTT tests) and filmed thereafter for a period of 72h. The experiment was conducted in triplicate.
The behaviour of the cells, in terms of morphology, growth and death were thus investigated. The effect on the overall growth was measured by counting the number of cells on the first (0h) and the last image (72h) of each film. The global growth ratio (GGR) was then deduced by dividing the number of cells on the last image by the number of cells on the first image. The ratio GGRtreated cells / GGRcontrol cells, was further calculated thereby obtaining a value that describes the effect of compounds of the present invention on the overall cell growth.
The methodology is fully described and validated in Debeir et al., 2008, Exp Cell Res 314:2985-2998 and Mathieu et al., 2009, J Cell Mol Med, Feb 20, 2009.
Thanks to the quantitative videomicroscopy (QVM) approach, we classified the compounds into 4 distinctive classes on the basis of their cytostatic versus cytotoxic effects (Table 3). • Class I: actually cytostatic for 3 days (< 10 % of cell death at the 3rd day) • Class II: cytostatic but becomes cytotoxic with < 10% cell death on the 2nd day and > 20% of cell death on the 3rd day • Class III: cytostatic but rapidly becomes cytotoxic with < 10% cell death on the 1st day, > 20% of cell death on the 2nd day and > 50% of cell death on the 3rd day • Class IV: cytotoxic (> 50% of cell death on the first day)
In Fig. 1a, compounds of example 14 (5 µM), example 19 (20 µM) and example 23 (5 µM) belong to QVM Class I because they display cytostatic effects on human U373 GBM cells during the whole duration of the experiment. Cytostatic effects mean that < 10 % of cell death was recorded at the end of the experiment, i.e. at the end of the 3rd day. QVM analyses enable the global growth ratio (GGR) to be calculated in each experiment. The GGR index is obtained by dividing the number of cells in the last image by the number of cells in the first image of the experiment, knowing that 1080 images are taken during the 72 h-period of observation. The ratio GGR^treated cells / GGR^control cells was further calculated thereby obtaining a value that describes the effect of compounds on the overall cell growth. Thus, a GGR index of 0.2 means that they remain only 20% of treated cells compare to the control cells at the end of the experiment.

T98G = assay: MTT colorimetric assay, overall cell growth; conditions: Homo sapiens, 72 h, read-out: IC50 (µM) In Vitro Growth Inhibitory Concentrations (MTT Colorimetric Assay) T98G;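 further: growth inhibition of the human glioblastoma line measured by MTT reduction to formazan, optical density read on a spectrophotometer at 570 nm, untreated cells as control, nine concentrations from 10 nM to 100 µM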
Method: The compounds and particularly dihydrobenzopyran, thiochroman, tetrahydroquinoleine and tetrahydronaphthalene derivatives of the invention were evaluated for their anti-proliferative effect (by means of the colorimetric MTT assay), in the following human glioblastoma cell-lines U373, T98G and Hs683 and in the mouse glioma cell line GL261. Normal brain cells (primocultures from newborn mice) were also used in order to determine the bioselectivity (B^N/C) of the compounds of interest, i.e. the ratio between the concentrations that inhibits 50% of the growth of brain cancer (C) cells (glioma cells) and the concentration that inhibits 50% of the growth of normal (N) brain cells (primocultures of astrocytes).
as §3, §4, §5, §6
The micro-wells were subsequently incubated during 3 hours and a half at 37°C and centrifuged at 1300 rpm during 10 minutes. MTT was removed and formazan crystals formed were dissolved in 100 µl DMSO. The micro-wells were shaken for 5 minutes and read on a spectrophotometer at wavelengths of 570 nm (maximal formazan absorbance).
as §8

[2] = system: Astrocytes - Mouse normal brain cells; assay: MTT colorimetric assay on normal astrocytes (bioselectivity); format: cell-based
Method: (§1) Table 2: Bioselectivity determined by dividing the IC50 obtained with glioma cell lines by the IC50 obtained with normal astrocytes. Bioselectivity was determined only for those compounds whose mean + SEM values on the three human glioma cell lines were ≤ 20 µM.

[3] = system: Astrocytes - Mouse normal brain cells; assay: as above; format: cell-based; conditions: Astrocyte, primocultures of astrocytes from newborn mice, 72h, read-out: Mean IC50 MTT values ± SEM (µM) Astrocytes - Mouse normal brain cells (II - 72h)
Hs683 = assay: MTT colorimetric assay, overall cell growth; format: cell-based; conditions: Homo sapiens, Hs 683; Hs683 cells, 72 hours of incubation; read-out: IC50 (µM) In Vitro Growth Inhibitory Concentrations (MTT Colorimetric Assay) Hs683
Method: as §2, §3, §4, §5, §6, §7, §8

[4] = system: three Human Glioma Cell Lines; assay: MTT colorimetric assay, mean over the three glioma cell lines; format: cell-based; conditions: mean of the three human glioma cell lines, 72h (Table 2); read-out: Mean IC50 MTT values ± SEM (µM) Glioma - Human Brain cancer cells (I - 72h)
Method: as §1

Compound	IC50 (U373) [µM]	QVM Class [1]	IC50 (T98G) [µM]	Bioselectivity (I / II) [2]	IC50 [3] [µM]	IC50 (Hs683) [µM]	IC50 [4] [µM]
CC(C)(C)OC(=O)Nc1ccc2c(c1)C(NC(=O)Nc1cccc([N+](=O)[O-])c1)CC(C)(C)O2 (racemic) [Example 23, R/S-N-3-nitrophenyl-N'-(6-tert-butoxycarbonylamino-3,4-dihydro-2,2-dimethyl-2H-1-benzopyran-4-yl)urea]	1	I (Class I: actually cytostatic for 3 days (< 10 % of cell death at the 3rd day))	7	< 5	< 40	16	8 ± 4
CC(C)(C)OC(=O)Nc1ccc2c(c1)C(NC(=O)Nc1ccc(C(F)(F)F)cc1)CC(C)(C)O2 (racemic) [Example 24, R/S-N-4-trifluoromethylphenyl-N'-(6-tert-butoxycarbonylamino-3,4-dihydro-2,2-dimethyl-2H-1-benzopyran-4-yl)urea]	10	I (Class I: actually cytostatic for 3 days (< 10 % of cell death at the 3rd day))	15	> 10	> 120	11	12 ± 1
CC(C)(C)OC(=O)Nc1ccc2c(c1)C(NC(=O)Nc1cccc(C(F)(F)F)c1)CC(C)(C)O2 (racemic) [Example 25, R/S-N-3-trifluoromethylphenyl-N'-(6-tert-butoxycarbonylamino-3,4-dihydro-2,2-dimethyl-2H-1-benzopyran-4-yl)urea]	9	II (Class II: cytostatic but becomes cytotoxic with < 10% cell death on the 2nd day and > 20% of cell death on the 3rd day)	21	< 2	~20	8	13 ± 4
CC(C)(C)OC(=O)Nc1ccc2c(c1)C(NC(=O)Nc1cc(Cl)cc(Cl)c1)CC(C)(C)O2 (racemic) [Example 26, R/S-N-3,5-dichlorophenyl-N'-(6-tert-butoxycarbonylamino-3,4-dihydro-2,2-dimethyl-2H-1-benzopyran-4-yl)urea]	6	II (Class II: cytostatic but becomes cytotoxic with < 10% cell death on the 2nd day and > 20% of cell death on the 3rd day)	12	< 5	~40	9	9 ± 2
CC(C)(C)OC(=O)Nc1ccc2c(c1)C(NC(=O)Nc1cc(C(F)(F)F)cc(C(F)(F)F)c1)CC(C)(C)O2 (racemic) [Example 29, R/S-N-3,5-di(trifluoromethyl)phenyl-N'-(6-tert-butoxycarbonylamino-3,4-dihydro-2,2-dimethyl-2H-1-benzopyran-4-yl)urea]	4	I (Class I: actually cytostatic for 3 days (< 10 % of cell death at the 3rd day))	5	∼ 5	~20	3	4 ± 1
